According to patent publication US12624018B1, “Inhibitors of RIPK2 and medical uses thereof” (Odyssey Therapeutics, Inc., priority 2022, dated 2026):

Columns and labels:
RIPK2 enzyme = biological target: T1, RIPK2 enzyme (Homo sapiens, UniProt O43353); assay: RIPK2 inhibition (ADP-Glo Kinase Assay); format: biochemical; conditions: RIPK2 5 nM, ATP 150 μM, MBP substrate, read-out: RIPK2 IC50
T1 construct: purchased Carna 09-128
How it was run: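 Swine MBP substrate; compound and 5 nM RIPK2 first mixed for 30 min at room temperature; buffer pH 7.5 HEPES 50 mM with 10 mM MgCl2, 2 mM DTT, 1 mM EGTA, Brij-35, BSA.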

human NOD2 signaling = assay: Inhibition of human NOD2 signaling in HEK-Blue-hNOD2 cells (L18-MDP stimulated, SEAP reporter); format: cell-based; conditions: Homo sapiens, HEK-Blue hNOD2, HEK-Blue-hNOD2 cells, NOD2 ligand stimulation, SEAP reporter; read-out: hNOD2 IC50
How it was run: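 Read-out is SEAP absorbance at 620 nm after 3 h QUANTI-Blue development of supernatant from HEK293 cells carrying NOD2 and a SEAP reporter (12500/well). Cells got compound (10 points, 3-fold dilutions) and 0.5 ng/mL L18-MDP for 24 h at 37 °C; percent inhibition vs stimulated/unstimulated controls, 4-parameter IC50.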

T1 sequence (O43353 1-299 limits assumed): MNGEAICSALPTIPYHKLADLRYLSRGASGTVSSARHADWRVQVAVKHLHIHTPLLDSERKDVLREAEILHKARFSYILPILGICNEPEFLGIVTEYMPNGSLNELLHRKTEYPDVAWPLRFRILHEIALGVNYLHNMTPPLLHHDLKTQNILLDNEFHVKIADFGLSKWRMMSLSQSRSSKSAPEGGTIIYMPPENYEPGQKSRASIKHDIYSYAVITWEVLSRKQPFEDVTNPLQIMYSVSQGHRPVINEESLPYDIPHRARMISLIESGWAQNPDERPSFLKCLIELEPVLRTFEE

Compound	IC50 (RIPK2 enzyme)	IC50 (human NOD2 signaling)
CNC(=O)c1cc2c(Oc3c(C)cc(CC(=O)Nc4cnn(C(C)(C)C)c4)cc3F)ccnc2cc1F [Compound 599, 4-(4-(2-((1-(tert-butyl)-1H-pyrazol-4-yl)amino)-2-oxoethyl)-2-fluoro-6-methylphenoxy)-7-fluoro-N-methylquinoline-6-carboxamide]	< 2.5 nM	1.7 nM
[2H]C([2H])([2H])NC(=O)c1cc2c(Oc3c(C)cc(CC(=O)Nc4cnn(C(C)(C)C)c4)cc3F)ccnc2cc1F [Compound 600, 4-(4-(2-((1-(tert-butyl)-1H-pyrazol-4-yl)amino)-2-oxoethyl)-2-fluoro-6-methylphenoxy)-7-fluoro-N-(methyl-d3)quinoline-6-carboxamide]	< 2.5 nM	1.4 nM
[2H]C([2H])([2H])C(n1cc(NC(=O)Cc2cc(C)c(Oc3ccnc4cc(F)c(C(=O)NC)cc34)c(F)c2)cn1)(C([2H])([2H])[2H])C([2H])([2H])[2H] [Compound 601, 7-fluoro-4-(2-fluoro-6-methyl-4-(2-((1-(2-(methyl-d3)propan-2-yl-1,1,1,3,3,3-d6)-1H-pyrazol-4-yl)amino)-2-oxoethyl)phenoxy)-N-methylquinoline-6-carboxamide]	< 2.5 nM	1.4 nM
Cc1cc(CC(=O)Nc2cnn(C(C)(C)C)c2)ccc1Oc1ccnc2ccc(C3(S(C)(=O)=O)CC3)cc12 [Compound 605, N-(1-(tert-butyl)-1H-pyrazol-4-yl)-2-(3-methyl-4-((6-(1-(methylsulfonyl)cyclopropyl)quinolin-4-yl)oxy)phenyl)acetamide]	< 2.5 nM	15.6 nM
Cc1c(Oc2ccnc3ccc(C4(C(N)=O)CCC4)cc23)cc(F)c(CC(=O)Nc2cnn(C(C)(C)C)c2)c1F [Compound 606, 1-(4-(4-(2-((1-(tert-butyl)-1H-pyrazol-4-yl)amino)-2-oxoethyl)-3,5-difluoro-2-methylphenoxy)quinolin-6-yl)cyclobutane-1-carboxamide]	3.8 nM	0.8 nM
[2H]C([2H])([2H])C(n1cc(NC(=O)Cc2cc(C)c(Oc3ccnc4cc(F)c(C(N)=O)cc34)c(F)c2)cn1)(C([2H])([2H])[2H])C([2H])([2H])[2H] [Compound 608, 7-fluoro-4-(2-fluoro-6-methyl-4-(2-((1-(2-(methyl-d3)propan-2-yl-1,1,1,3,3,3-d6)-1H-pyrazol-4-yl)amino)-2-oxoethyl)phenoxy) quinoline-6-carboxamide]	2.5 nM	1.6 nM
Cc1c(Oc2ccnc3cc(F)c(C(N)=O)cc23)ccc(CC(=O)Nc2cnn(C(C)(C)C)c2)c1C#N [Compound 610, 4-(4-(2-((1-(tert-butyl)-1H-pyrazol-4-yl)amino)-2-oxoethyl)-3-cyano-2-methylphenoxy)-7-fluoroquinoline-6-carboxamide]	< 2.5 nM	2.1 nM
CNC(=O)c1cc2c(Oc3ccc(CC(=O)Nc4cnn(C(C)(C)C)c4)c(C#N)c3C)ccnc2cc1F [Compound 611, 4-(4-(2-((1-(tert-butyl)-1H-pyrazol-4-yl)amino)-2-oxoethyl)-3-cyano-2-methylphenoxy)-7-fluoro-N-methylquinoline-6-carboxamide]	< 2.5 nM	0.9 nM
Cc1nc(CC(=O)Nc2cnn(C(C)(C)C)c2)ccc1Oc1ccnc2cc(F)c(C(N)=O)cc12 [Compound 612, 4-((6-(2-((1-(tert-butyl)-1H-pyrazol-4-yl)amino)-2-oxoethyl)-2-methylpyridin-3-yl)oxy)-7-fluoroquinoline-6-carboxamide]	< 2.5 nM	3.6 nM
CNC(=O)c1cc2c(Oc3ccc(CC(=O)Nc4cnn(C(C)(C)C)c4)nc3C)ccnc2cc1F [Compound 613, 4-((6-(2-((1-(tert-butyl)-1H-pyrazol-4-yl)amino)-2-oxoethyl)-2-methylpyridin-3-yl)oxy)-7-fluoro-N-methylquinoline-6-carboxamide]	< 2.5 nM	4.6 nM
[2H]C([2H])([2H])NC(=O)c1cc2c(Oc3ccc(CC(=O)Nc4cnn(C(C)(C)C)c4)nc3C)ccnc2cc1F [Compound 614, 4-((6-(2-((1-(tert-butyl)-1H-pyrazol-4-yl)amino)-2-oxoethyl)-2-methylpyridin-3-yl)oxy)-7-fluoro-N-(methyl-d3)quinoline-6-carboxamide]	< 2.5 nM	3.7 nM
[2H]C([2H])([2H])C(n1cc(NC(=O)Cc2cc(C)c(Oc3ccnc4ccc(C(=O)NC)cc34)cc2F)cn1)(C([2H])([2H])[2H])C([2H])([2H])[2H] [Compound 622, 4-(5-fluoro-2-methyl-4-(2-((1-(2-(methyl-d3)propan-2-yl-1,1,1,3,3,3-d6)-1H-pyrazol-4-yl)amino)-2-oxoethyl)phenoxy)-N-methylquinoline-6-carboxamide]	< 2.5 nM	2 nM

Continued, values first:

IC50 (RIPK2 enzyme)	IC50 (human NOD2 signaling)	Compound
< 2.5 nM	1.3 nM	[2H]C([2H])([2H])C(n1cc(NC(=O)Cc2ccc(Oc3ccnc4ccc(S(C)(=O)=O)cc34)c(C)c2)cn1)(C([2H])([2H])[2H])C([2H])([2H])[2H] [Compound 597, 2-(3-methyl-4-((6-(methylsulfonyl)quinolin-4-yl)oxy)phenyl)-N-(1-(2-(methyl-d3)propan-2-yl-1,1,1,3,3,3-d6)-1H-pyrazol-4-yl)acetamide]
< 2.5 nM	2.3 nM	Cc1cc(CC(=O)Nc2cnn(C(C)(C)C)c2)cc(F)c1Oc1ccnc2cc(F)c(C(N)=O)cc12 [Compound 598, 4-(4-(2-((1-(tert-butyl)-1H-pyrazol-4-yl)amino)-2-oxoethyl)-2-fluoro-6-methylphenoxy)-7-fluoroquinoline-6-carboxamide]
< 2.5 nM	8 nM	Cc1cc(CC(=O)Nc2cnn(C(C)(C)C)c2)cc(F)c1Oc1ccnc2cc(Cl)c(C(N)=O)cc12 [Compound 602, 4-(4-(2-((1-(tert-butyl)-1H-pyrazol-4-yl)amino)-2-oxoethyl)-2-fluoro-6-methylphenoxy)-7-chloroquinoline-6-carboxamide]
< 2.5 nM	2.5 nM	Cc1cc(CC(=O)Nc2cnn(C(C)(C)C)c2)ccc1Oc1ccnc2ccc(C3(C(N)=O)CC3)cc12 [Compound 603, 1-(4-(4-(2-((1-(tert-butyl)-1H-pyrazol-4-yl)amino)-2-oxoethyl)-2-methylphenoxy)quinolin-6-yl)cyclopropane-1-carboxamide]
< 2.5 nM	12.4 nM	Cc1cc(CC(=O)Nc2cnn(C(C)(C)C)c2)ccc1Oc1ccnc2ccc(C3(C(N)=O)CCC3)cc12 [Compound 604, 1-(4-(4-(2-((1-(tert-butyl)-1H-pyrazol-4-yl)amino)-2-oxoethyl)-2-methylphenoxy)quinolin-6-yl)cyclobutane-1-carboxamide]
3.5 nM	6.1 nM	Cc1c(Oc2ccnc3ccc(C4(S(C)(=O)=O)CC4)cc23)cc(F)c(CC(=O)Nc2cnn(C(C)(C)C)c2)c1F [Compound 607, N-(1-(tert-butyl)-1H-pyrazol-4-yl)-2-(2,6-difluoro-3-methyl-4-((6-(1-(methylsulfonyl)cyclopropyl)quinolin-4-yl)oxy)phenyl)acetamide]
< 2.5 nM	1.1 nM	Cc1cc(CC(=O)Nc2cc(C(C)(C)C)[nH]n2)cc(F)c1Oc1ccnc2cc(F)c(C(N)=O)cc12 [Compound 617, 4-(4-(2-((5-(tert-butyl)-1H-pyrazol-3-yl)amino)-2-oxoethyl)-2-fluoro-6-methylphenoxy)-7-fluoroquinoline-6-carboxamide]
< 2.5 nM	0.3 nM	Cc1cc(CC(=O)Nc2cc(C(C)(C)C)[nH]n2)cc(C)c1Oc1ccnc2cc(F)c(C(N)=O)cc12 [Compound 618, 4-(4-(2-((5-(tert-butyl)-1H-pyrazol-3-yl)amino)-2-oxoethyl)-2,6-dimethylphenoxy)-7-fluoroquinoline-6-carboxamide]
< 2.5 nM	1.4 nM	CC(C)(C)c1cc(NC(=O)Cc2ccc(Oc3ccnc4cc(F)c(C(N)=O)cc34)c(C(F)F)c2)n[nH]1 [Compound 619, 4-(4-(2-((5-(tert-butyl)-1H-pyrazol-3-yl)amino)-2-oxoethyl)-2-(difluoromethyl)phenoxy)-7-fluoroquinoline-6-carboxamide]
